In patent US5075301A, “Furan derivatives useful for the treatment of gastro-intestinal disorders” (Kyowa Hakko Kogyo, Co., Ltd., priority 1989, dated 1991):

Assays:
ileal strips = assay: Gastrointestinal motility stimulation test (ileal strip, electric transmural stimulation); parameters: species or system male Hartley guinea pigs; settings: Cavia porcellus; for activation at 10 µg/mL: read-out: Amplification Degree (Electric Transmural Stimulation), 10^-5 g/ml; for activation at 1 µg/mL: read-out: Amplification Degree (Electric Transmural Stimulation), 10^-6 g/ml
Method: From male Hartley guinea pigs weighing 250-400 g, ileal strips, 2-3 cm long, were isolated. The ileal strip was suspended in a Tyrode's solution bath (30 ml) while supplying a mixture gas of 95% O2 -5% CO2 and maintained at 37±1° C. and using an isotonic transducer the longitudinal contractions of the strip were recorded. Supramaximal electric transmural stimulation of 1-millisecond duration was given at 10-second intervals. Each test compound was dissolved or suspended in physiological saline and added into the organ bath. The effect of each test compound on electric transmural stimulation was calculated from the amplitude of contractions (A) before administration and the amplitude of contractions (B) after administration using the following equation. [formula]

male dd mice = assay: Acute toxicity test (minimum lethal dose, MLD); type: in vivo; settings: p.o., 7 days
Method: Using male dd mice weighing 20±1 g in groups of 3, each test compound was orally administered (300 mg/kg, p.o.).

histamine H2 -receptor [1] = assay: antihistaminic (histamine H2 -receptor blocking) activity; settings: no method given
histamine H2 -receptor [2] = settings: known; cited from earlier work
gastrointestinal tract = settings: Scand. J. Gastroenterol., 21 (Suppl. 121), 30 (1986); cited from earlier work

SMILES | activation at 10 µg/mL (ileal strips) [%] | Acute Toxicity (MLD) (male dd mice) [mg/kg] | activation at 1 µg/mL (ileal strips) [%] | antihistaminic activity (histamine H2 -receptor [1]) | histamine H2 -receptor blocking activity (histamine H2 -receptor [2]) | activity to stimulate motility of the gastrointestinal tract (gastrointestinal tract)
CNC(=C[N+](=O)[O-])NCCNCc1ccc(CN(C)C)o1 [Compound 1, N-[2-[(5-Dimethylaminomethyl-2-furanyl)methylamino]ethyl]-N'-methyl-2-nitroethene-1,1-diamine] | 30 | > 300 | – | – | – | –
CNC(NCCNCc1ccc(CN(C)C)o1)=C(C#N)C#N [Compound 2, [[2-[(5-Dimethylaminomethyl-2-furanyl)methylamino]ethyl]amino(methylamino)methylene]propanedinitrile] | 80.5 | > 300 | 31 | – | – | –
CNC(NCCCNCc1ccc(CN(C)C)o1)=C(C#N)C#N [Compound 6, [[3-[(5-Dimethylaminomethyl-2-furanyl)methylamino]propylamino](methylamino)methylene]propanedinitrile] | 34 | > 300 | – | – | – | –
CNC(NCCNC(=O)c1ccc(CN(C)C)o1)=C(C#N)C#N [Compound 10, 5-(Dimethylaminomethyl)-N-[2-(1-methylamino-2,2-dicyanovinylamino)ethyl]-2-furancarboxamide] | 36.4 | > 300 | 15.3 | – | – | –
CNC(NCCNCc1ccc(CN(C(C)C)C(C)C)o1)=C(C#N)C#N [Compound 12, [[2-[(5-Diisopropylaminomethyl-2-furanyl)methylamino]ethyl]amino(methylamino)methylene]propanedinitrile] | 55.8 | > 300 | 34.3 | – | – | –
CNC(NCCNCc1ccc(CN2CCCC2)o1)=C(C#N)C#N [Compound 13, [[2-[(5-Pyrrolidinylmethyl-2-furanyl)methylamino]ethyl](methylamino)methylene]propanedinitrile] | 70.8 | > 300 | 34.5 | – | – | –
CNC(NCCNCc1ccc(CN2CCCCC2)o1)=C(C#N)C#N [Compound 14, [[2-[(5-Piperidinomethyl-2-furanyl)methylamino]ethyl](methylamino)methylene]propanedinitrile] | 79.3 | > 300 | 37.3 | – | – | –
CNc1c(NCCNCc2ccc(CN3CCCCC3)o2)c(=O)c1=O [Compound 17, 1-Methylamino-2-[[2-[(5-piperidinomethyl-2-furanyl)methylamino]ethyl]amino]cyclobutene-3,4-dione] | 75 | > 300 | 19.5 | – | – | –
CN(C)Cc1ccc(CNCCN2CCNC2=C(C#N)C#N)o1 [Compound 22, [1-[2-[(5-Dimethylaminomethyl-2-furanyl)methylamino]ethyl]-2-imidazolidinylidene]propanedinitrile] | – | > 300 | 56 | – | – | –
CCN(C)Cc1ccc(CNCCN2CCNC2=C(C#N)C#N)o1 [Compound 25, [1-[2-[(5-Ethylmethylaminomethyl-2-furanyl)methylamino]ethyl]-2-imidazolidinylidene]propanedinitrile] | – | > 300 | 63.5 | – | – | –
N#CC(C#N)=C1NCCN1CCNCc1ccc(CN2CCCC2)o1 [Compound 27, [1-[2-[(5-Pyrrolidinylmethyl-2-furanyl)methylamino]ethyl]-2-imidazolidinylidene]propanedinitrile] | – | > 300 | 12 | – | – | –
N#CC(C#N)=C1NCCN1CCNCc1ccc(CN2CCCCC2)o1 [Compound 28, [1-[2-[(5-Piperidinomethyl-2-furanyl)methylamino]ethyl]-2-imidazolidinylidene]propanedinitrile] | – | 100 | – | – | – | –
N#CC(C#N)=C1NCCN1CCNCc1ccc(CN2CCCCCC2)o1 [Compound 29, [1-[2-[(5-Perhydroazepinylmethyl-2-furanyl)methylamino]ethyl]-2-imidazolidinylidene]propanedinitrile] | – | 200 | 68 | – | – | –
CC1CCN(Cc2ccc(CNCCN3CCNC3=C(C#N)C#N)o2)CC1 [Compound 32, [1-[2-[[5-(4-Methylpiperidinomethyl)-2-furanyl]methylamino]ethyl]-2-imidazolidinylidene]propanedinitrile] | – | > 300 | 52 | – | – | –
COC1CCCN(Cc2ccc(CNCCN3CCNC3=C(C#N)C#N)o2)C1 (centres unmarked) [Compound 34, [1-[2-[[5-(3-Methoxypiperidinomethyl)-2-furanyl]methylamino]ethyl]-2-imidazolidinylidene]propanedinitrile] | 81.3 | > 300 | 23 | – | – | –
N#CC(C#N)=C1NCCN1CCNCc1ccc(CN2CCSCC2)o1 [Compound 38] | – | > 300 | 34.5 | – | – | –
CN(CCN1CCNC1=C(C#N)C#N)Cc1ccc(CN2CCCCC2)o1 [Compound 45, [1-[2-[N-(Methyl)-N-[(5-piperidinomethyl-2-furanyl)methyl]amino]ethyl]-2-imidazolidinylidene]-propanedinitrile] | 72.1 | > 300 | 43.8 | – | – | –
CCN(CC)CCNC(=O)c1cc(Cl)c(N)cc1OC [Metoclopramide, reference compound] | 33.4 | 200 | 18 | – | – | –
CNC(=C[N+](=O)[O-])NCCSCc1ccc(CN(C)C)o1 [Ranitidine, reference compound] | 42.2 | > 300 | 35 | found | having histamine H2 -receptor blocking activity | weak
